Experimental data taken from patent US11498933B2, “Prodrug compositions” (The University of Liverpool, priority 2017, dated 2022).

Columns and labels:
[1] = Stability in single-round infectivity assay well media; assay type: in vitro ADME; conditions: RPMI1640, 10% FBS, 50% heat-inactivated human serum, 37° C.
Description: Well media used in the single-round infectivity assays as described above, comprised of RPMI1640 medium supplemented with 10% FBS, cytokine-rich supernatant, 50% heat-inactivated human serum and HEPES buffer (12 mM). The emtricitabine test compounds were incubated in well media at 37° C. At various time points, aliquots were quenched in two volumes of ice-cold methanol. Quenched mixtures were then centrifuged at 14000 rpm for 5 minutes. The supernatant was diluted 10-fold into Tris buffer (30 mM, pH 7.4) and then analyzed via HPLC coupled with UV detection.
Stability studies indicate that both compounds 16 and 25 were hydrolyzed to the parent emtricitabine in a time-frame matching the time of pre-incubation in single-round infectivity assays. This is likely due to the presence of heat-inactivated serum still containing active esterases.

[2] = Prodrug hydrolysis in mouse liver S9; assay type: in vitro ADME; conditions: 1 mM, compared with human liver S9
Description: (§1) Reaction mixtures containing either mouse liver S9 (20.8 mg/mL), mouse plasma, rat liver S9 (1 mg/mL) and phosphate buffer (100 mM, pH 7.4), rat plasma, human liver S9 (1.0 mg/mL) and phosphate buffer (100 mM, pH 7.4) or human plasma were pre-incubated at 37° C. for 5 minutes. Reactions were then initiated by addition of compounds 4, 8 or 16 (1 mM in mouse, 0.5 mM in rat and human). After incubation at 37° C., aliquots are taken at each time point and quenched in two volumes of ice-cold methanol. The quenched aliquots were then centrifuged at 14000 rpm for 5 minutes. The supernatant was then diluted into phosphate buffer (30 mM, pH 7.4) to yield samples with concentrations suitable for analysis.

[3] = Prodrug hydrolysis in mouse plasma; assay type: in vitro ADME; conditions: 1 mM, compared with human plasma
Description: as §1

CD4+ T cells = experiment: Viability staining (Zombie Red) in single-round infectivity assay
Description: Peripheral blood mononuclear cells were isolated from healthy blood donors using Hypaque-Ficoll gradient centrifugation. CD4+ T cells were selected by magnetic beads (Miltenyi) and activated using anti-CD3 and anti-CD28 antibodies. Activated cells were seeded onto a 96-well plate at a concentration of 1×10^5 cells/well in RPMI1640 supplemented with 10% FBS, cytokine-rich supernatant, and 50% heat-inactivated human serum. Test compounds were added at this step and maintained throughout the culture. Cells were incubated at 37° C. for 21 hours. Pseudotype (GFP-tagged) HIV was then added to the culture via spinoculation and incubated for 3 days. Cells were then washed and stained with Zombie Red viability stain. Infectivity was quantified using flow cytometry.

[4] = Half-life of emtricitabine amidine prodrug in human serum; assay type: in vitro ADME; conditions: normal human serum, 37° C.
Description: (§2) To evaluate the hydrolysis rates of emtricitabine amidine prodrugs, HPLC coupled with UV detection was used with the following method (0% to 100% acetonitrile in Et3NHOAc (50 mM, pH 8) gradient) over 10 minutes at a flow rate of 3 mL min^−1, held at 100% acetonitrile for 3 minutes, ramped down to 5% acetonitrile over 0.2 minutes and then held for 2.8 minutes. Normal human serum (Bioreclamation) or phosphate buffer (100 mM, pH 7.4) was pre-incubated at 37° C. for 5 minutes. Emtricitabine amidine compound 23 (1 mM) was then added and the reaction mixture was incubated at 37° C. […] The supernatant was injected onto a HPLC system for analysis, the resulting data can be seen illustrated in FIG. 13.

[5] = Half-life of emtricitabine amidine prodrug in phosphate buffer; assay type: physicochemical; conditions: Phosphate Buffer (100 mM, pH 7.4), 37° C.
Description: as §2

[6] = Kinetic analysis via UV in mixed pooled gender liver S9 (10.0 mg/mL); assay type: in vitro ADME, human
Description: Reaction mixtures containing Tris buffer (30 mM, pH 7.4) and mixed pooled gender liver S9 (10.0 mg/mL) were pre-incubated at 37° C. for 5 min. […] After incubation at 37° C., aliquots were taken at each time point and quenched in two volumes of ice-cold methanol. The quenched aliquots were then centrifuged at 14000 rpm for 5 minutes. The supernatant was diluted into Tris buffer (30 mM, pH 7.4) to yield concentrations appropriate for analysis and read spectrophotometrically monitoring a decrease in substrate at 305 nm.
A reaction mixture containing Tris buffer (30 mM, pH 7.4) and mixed pooled gender liver S9 (10.0 mg/mL) was pre-incubated at 37° C. for 5 minutes. The reaction was then initiated by the addition of emtricitabine trimethyl lock compound 25 (concentration of compound 25 ranging from 100 μM to 8 mM). After incubation at 37° C., aliquots were taken at each time point and quenched in two volumes of ice-cold methanol. The quenched aliquots were then centrifuged at 14000 rpm for 5 minutes. The supernatant was diluted into Tris buffer (30 mM, pH 7.4) to yield samples having concentrations appropriate for analysis and read spectrophotometrically monitoring a decrease in substrate at 312 nm.

[7] = Half-life measurements in human skeletal muscle S9; assay type: in vitro ADME; conditions: Human muscle S9 (7.96 mg/mL), 37° C.
Description: (§3) To evaluate the hydrolysis rates of emtricitabine compounds 9-16, HPLC coupled with UV detection was used with the following method (0% to 100% acetonitrile in Et3NHOAc (50 mM, pH 8) gradient) over 10 minutes at a flow rate of 3 mL min^−1, held at 100% acetonitrile for 3 minutes, ramped down to 5% acetonitrile over 0.2 minutes and then held for 2.8 minutes. Male human plasma (Bioreclamation) or female human skeletal muscle S9 (7.96 mg/mL, Bioreclamation) was pre-incubated at 37° C. for 5 minutes. Compounds 9-16 (1 mM) were added and the reaction was incubated at 37° C. […] The supernatant was diluted 10 fold into Tris buffer (30 mM, pH 7.4) and injected onto the HPLC for analysis.
(§4) To evaluate the hydrolysis rates of emtricitabine trimethyl lock prodrugs, HPLC coupled with UV detection was used with the following method (0% to 100% acetonitrile in Et3NHOAc (50 mM, pH 8) gradient) over 10 minutes at a flow rate of 3 mL min^−1, held at 100% acetonitrile for 3 minutes, ramped down to 5% acetonitrile over 0.2 minutes and then held for 2.8 minutes. Human plasma (Bioreclamation) or human skeletal muscle S9 (7.96 mg/mL, Bioreclamation) was pre-incubated at 37° C. for 5 minutes. Emtricitabine trimethyl lock compound 25 (1 mM) was added and the reaction was incubated at 37° C. […] The supernatant was diluted in Tris buffer (100 mM, pH 7.4) and injected onto the HPLC for analysis.

[8] = Kinetic analysis of trimethyl lock prodrug in mouse liver S9 via UV; assay type: in vitro ADME; conditions: mouse liver S9 1.0 mg/mL
Description: The reaction is then initiated by the addition of emtricitabine trimethyl lock compound 25 (concentration of compound 25 ranging from 600 μM to 6 mM). […] The supernatant was diluted into Tris buffer (30 mM, pH 7.4) to yield concentrations appropriate for analysis and read spectrophotometrically monitoring a decrease in substrate at 312 nm.

[9] = Half-life measurements in human plasma (HPLC-UV); assay type: in vitro ADME; conditions: Human plasma, 37° C., read-out: Half-Life (converted)
Description: as §3
as §4, with “analysis. […]” for “analysis.”

Row | SMILES | half-life [1] | hydrolysis rate in mouse liver S9 [2] | hydrolysis rate in mouse plasma [3] | toxicity on CD4+ T cells (viability staining) (CD4+ T cells) | half-life at 1 mM [4] | half-life at 1 mM [5] | Intrinsic Clearance [6] | Vmax [6] | Km ([6]; both sexes, human, pooled liver S9, pH 7.4, 100 μM to 8 mM, 312 nm) | half-life at 1 mM [7] | Km ([8]; both sexes, pooled mouse liver S9, pH 7.4, 600 μM to 6 mM) | Intrinsic Clearance [8] | Vmax [8] | half-life at 1 mM [9]
1 | CCCCCCCCOC(=O)Nc1nc(=O)n([C@@H]2CS[C@H](CO)O2)cc1F [Compound 16, octyl (5-fluoro-1-((2R,5S)-2-(hydroxymethyl)-1,3-oxathiolan-5-yl)-2-oxo-1,2-dihydropyrimidin-4-yl)carbamate] | 18 h | comparable in mouse and human liver S9 | dramatically enhanced relative to human plasma | little to no toxicity |  |  |  |  |  |  |  |  |  | 
2 | CN(C)/C=N\c1nc(=O)n([C@@H]2CS[C@H](CO)O2)cc1F [Compound 23, (Z)—N′-(5-fluoro-1-((2R,5S)-2-(hydroxymethyl)-1,3-oxathiolan-5-yl)-2-oxo-1,2-dihydropyrimidin-4-yl)-N,N-dimethylformimidamide] |  |  |  |  | 5.8 h | 95 h |  |  |  |  |  |  |  | 
3 | CC(=O)Oc1cc(C)cc(C)c1C(C)(C)CC(=O)Nc1nc(=O)n([C@@H]2CS[C@H](CO)O2)cc1F [Compound 25, 2-(4-((5-fluoro-1-((2R,5S)-2-(hydroxymethyl)-1,3-oxathiolan-5-yl)-2-oxo-1,2-dihydropyrimidin-4-yl)amino)-2-methyl-4-oxobutan-2-yl)-3,5-dimethylphenyl acetate] | 0.83 h |  |  | little to no toxicity |  |  | 11.5 µL/min/mg | 1659 nmol/h/mg | 2400 µM | 1 h | 1600 µM | 138.3 µL/min/mg | 13200 nmol/h/mg | 0.4 h
